Drawing on patent publication US4996204A, “Pyrido[2,3-d]pyridazinones as aldose reductase inhibitors” (Pfizer Inc., priority 1989, dated 1991), this text covers inhibition for seven compounds.

Structures are written as SMILES.

The target in this experiment is T1, partially purified aldose reductase enzyme obtained from human placenta (Homo sapiens, UniProt P15121).
T1 construct: partially purified aldose reductase enzyme obtained from human placenta; from tissue; host or cells: human placenta
Nature of the experiment: inhibition of aldose reductase enzyme activity (procedure of S. Hayman et al. as modified by K. Sestanj et al.). It counts as biochemical. The conditions noted are these: read-out: Percent Inhibition (%) of aldose reductase enzyme activity; for inhibition at 10 µM: 10^-5 M; for inhibition at 1 µM: 10^-6 M; for inhibition at 0.1 µM: 10^-7 M. The source says:
Hayman et al., as described in the Journal of Biological Chemistry, Vol. 240, p. 877 (1965) and as modified by K. Sestanj et al. in U.S. Pat. […] In every case, the substrate employed was partially purified aldose reductase enzyme obtained from human placenta.

In the case of `O=C(O)Cc1nn(Cc2cc3c(Cl)cccc3s2)c(=O)c2cccnc12` [Example 19, 6-(4-chlorobenzothiophene-2-ylmethyl)-5-oxo-6H-pyrido[2,3-d]pyridazine-8-ylacetic acid], the inhibition at 10 µM was determined as 80%, the inhibition at 1 µM worked out at 60% and the inhibition at 0.1 µM is 8%.
Regarding `O=C(O)Cc1nn(Cc2noc(-c3ccccc3C(F)(F)F)n2)c(=O)c2cccnc12` [Example 20, 6-[5-(2-trifluoromethylphenyl)-1,2,4-oxadiazole-3-ylmethyl]-5-oxo-6H-pyrido[2,3-d]pyridazine-8-ylacetic acid], the inhibition at 10 µM amounted to 77%, the inhibition at 1 µM was determined as 72% and the inhibition at 0.1 µM was found to be 43%.
Regarding `O=C(O)Cc1nn(Cc2ccc(Br)cc2F)c(=O)c2cccnc12` [Example 21, 6-(4-bromo-2-fluorobenzyl)-5-oxo-6H-pyrido[2,3-d]pyridazine-8-ylacetic acid], the inhibition at 10 µM was determined as 86%, the inhibition at 1 µM is 76% and the inhibition at 0.1 µM is 30%.
Consider `O=C(O)Cc1nn(Cc2nc3cc(F)ccc3s2)c(=O)c2cccnc12` [Example 16, 6-(5-fluorobenzothiazole-2-ylmethyl)-5-oxo-6H-pyrido[2,3-d]pyridazine-8-ylacetic acid], for which the inhibition at 10 µM stood at 94%, the inhibition at 1 µM is 91% and the inhibition at 0.1 µM worked out at 90%.
With `O=C(O)Cc1nn(Cc2nc3cc(C(F)(F)F)ccc3s2)c(=O)c2cccnc12` [Example 15, 6-(5-trifluoromethylbenzothiazole-2-ylmethyl) -5-oxo-6H-pyrido[2,3-d]pyridazine-8-ylacetic acid], the inhibition at 10 µM was 88%, the inhibition at 1 µM is 81% and the inhibition at 0.1 µM was 74%.
Regarding `O=C(O)Cc1nn(Cc2nc3cc(F)cc(F)c3s2)c(=O)c2cccnc12` [Example 17], the inhibition at 10 µM was found to be 75%, the inhibition at 1 µM stood at 65% and the inhibition at 0.1 µM was 39%.
For `O=C(O)Cc1nn(Cc2nc3cc(Br)ccc3o2)c(=O)c2cccnc12` [Example 18, 6-(5-bromobenzoxazole-2-ylmethyl)-5-oxo-6H-pyrido[2,3-d]pyridazine-8-ylacetic acid], in that order: 93%, 87% and 31%.

A word on the inhibition: it is the percentage by which the read-out fell short of the control.
